Assays:
[1] = system: HCC1937; assay: normalised response (% of control), CellTiter-Glo; higher = more viable cells (100 = DMSO, 0 = benzethonium chloride kill control); settings: incubation time: 72 h
Summary of the method: (§1)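 Breast cancer cell lines (20 µl suspension) were seeded into 384-well plates holding compound at 5 concentrations in 10-fold steps over a compound-specific 10,000-fold range, then incubated 72 h. CellTox Green fluorescence (485/520 nm) was read first, then CellTiter-Glo luminescence after 10 min at room temperature. Each plate was normalised to 0.1 % DMSO (100) and a positive kill control (0). Each value is the normalised signal at a single concentration of the series.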

[2] = system: HCC1143; assay: as above; settings: incubation time: 72 h
Summary of the method: as §1

[3] = system: CAL-85-1; assay: as above; settings: incubation time: 72 h
Summary of the method: as §1

[4] = system: MDA-MB-453; assay: as above; settings: incubation time: 72 h
Summary of the method: as §1

[5] = system: CAL-51; assay: normalised viability (% of control), CellTiter-Blue; higher = more viable cells (about 100 = DMSO control); settings: incubation time: 72 h
Protocol: (§2)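 DSRT, CellTiter-Blue viability, 72 h incubation. Signal is normalised to DMSO and benzethonium chloride controls. Value is the normalised response at dose 9.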

[6] = system: CAL-85-1; assay: as above; settings: incubation time: 72 h
Protocol: as §2

[7] = system: DU-4475; assay: as above; settings: incubation time: 72 h
Protocol: as §2

[8] = system: CAL-148; assay: as above; settings: incubation time: 72 h
Protocol: as §2

[9] = system: MDA-MB-453; assay: as above; settings: incubation time: 72 h
Protocol: as §2

[10] = system: HDQ-P1; assay: as above; settings: incubation time: 72 h
Protocol: as §2

[11] = system: MDA-MB-436; settings: 72 h
Summary of the method: (§3)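 Breast cancer cell lines in 20 µl suspension were seeded onto 384-well plates that already held compound dissolved in 5 µl medium and were incubated for 72 h. Viability was measured by adding 2.5 µl CellTiter-Blue for 2 h at 37 °C and reading fluorescence at 560/590 nm. Each plate was normalised to vehicle and a positive kill control and checked by Z'-factor. EC50 was taken from a fitted percent-inhibition dose-response curve, censored at the highest concentration, and rows with a drug sensitivity score of zero were removed.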

[12] = system: MDA-MB-468; settings: 72 h
Summary of the method: as §3

[13] = system: MFM-223; settings: 72 h
Summary of the method: as §3

[14] = system: SK-BR-3; settings: 72 h
Summary of the method: as §3

[15] = system: BT-549; settings: 72 h
Summary of the method: as §3

[16] = system: BT-474; settings: 72 h
Summary of the method: as §3

[17] = system: CAL-120; settings: 72 h
Summary of the method: as §3

[18] = system: Hs578T; settings: 72 h
Summary of the method: as §3

[19] = system: MDA-MB-231; settings: 72 h
Summary of the method: as §3

[20] = system: HCC1937; settings: 72 h
Summary of the method: as §3

Row | Compound | normalised response [1] [%] | normalised response [2] [%] | normalised response [3] [%] | normalised response [4] [%] | normalised viability [5] [%] | normalised viability [6] [%] | normalised viability [7] [%] | normalised viability [8] [%] | normalised viability [9] [%] | normalised viability [10] [%] | also measured
1 | CN(C)CCOc1ccc(/C(=C(/CCCl)c2ccccc2)c2ccccc2)cc1 [Toremifene] (1000 nM) | 96.7 | 96.3 | 99.2 | 106 | – | – | – | – | – | – | –
2 | O=P1(N(CCCl)CCCl)NCCCO1 (stereo not given) [Cyclophosphamide] (40000 nM) | – | – | – | – | 101 | 98.4 | 94.4 | 110 | 117 | 120 | –
3 | NC(=O)c1ccc(I)c([N+](=O)[O-])c1 [Iniparib] (1000 nM) | 97.7 | 87.7 | 94.5 | 89.2 | – | – | – | – | – | – | –
4 | N#Cc1ccc(COC[C@H]2O[C@@H](n3c(NCc4ccc(Cl)c(Cl)c4)nc4c(N)ncnc43)[C@H](O)[C@@H]2O)cc1 (10000 nM) | – | – | – | – | 89.9 | 92 | 76.9 | 89 | 50.3 | 88.4 | –
5 | O=P1(N(CCCl)CCCl)NCCCO1 (stereo not given) [Cyclophosphamide] | – | – | – | – | – | – | – | – | – | – | EC50, CellTiter-Blue viability [11]: > 40 µM
6 | c1ccc2c(CCNc3ccc(Nc4ccncc4)cc3)c[nH]c2c1 [Serdemetan] (1000 nM) | 88.5 | 83.8 | 125 | 110 | – | – | – | – | – | – | –
7 | COC(=O)c1ccc2c(c1)NC(=O)/C2=C(\Nc1ccc(N(C)C(=O)CN2CCN(C)CC2)cc1)c1ccccc1 [BIBF 1120] | – | – | – | – | – | – | – | – | – | – | EC50, CellTiter-Blue viability [12]: 5.61 µM; EC50, CellTiter-Blue viability [13]: 0.555 µM; EC50, CellTiter-Blue viability [14]: 7.75 µM; EC50, CellTiter-Blue viability [15]: 5.43 µM; EC50, CellTiter-Blue viability [16]: 1.85 µM; EC50, CellTiter-Blue viability [17]: 3.64 µM; EC50, CellTiter-Blue viability [18]: 7.05 µM; EC50, CellTiter-Blue viability [19]: 4.16 µM; EC50, CellTiter-Blue viability [11]: 9.11 µM
8 | Cc1ccc(NC(=O)c2ccc(CN3CCN(C)CC3)cc2)cc1Nc1nc(-c2cccnc2)cs1 [Masitinib] (10000 nM) | – | – | – | – | 80.4 | 70.4 | 119 | 74.5 | 24.4 | 67.6 | –
9 | COCC[n+]1c2c(n(Cc3cnccn3)c1C)C(=O)c1ccccc1C2=O [YM155] (1000 nM) | 0.41 | 0.6 | -0.48 | 9.91 | – | – | – | – | – | – | –
10 | COCC1(CO)C(=O)C2CCN1CC2 (stereo not given) [Prima-1 Met] (1000 nM) | 92.2 | 105 | 105 | 109 | – | – | – | – | – | – | –
11 | Cc1[nH]c2ccccc2c1CCNCc1ccc(/C=C/C(=O)NO)cc1 [Panobinostat] (100 nM) | 63.1 | 26.3 | 25.9 | 3.15 | – | – | – | – | – | – | –
12 | COc1cc(OC2CCN(C)CC2)ccc1Nc1ncc2c(n1)n(C1CCCC1)c(=O)n2C [AZ 3146] (1000 nM) | 97.2 | 99.2 | 98.2 | 117 | – | – | – | – | – | – | –
13 | S=P(N1CC1)(N1CC1)N1CC1 [Thio-TEPA] | – | – | – | – | – | – | – | – | – | – | EC50, CellTiter-Blue viability [19]: 12 µM
14 | COc1cc(OC2CCN(C)CC2)ccc1Nc1ncc2c(n1)n(C1CCCC1)c(=O)n2C [AZ 3146] (10000 nM) | – | – | – | – | 22 | 72.4 | 54.6 | 48.4 | 37.4 | 80.1 | –
15 | O=C(Nc1cccnc1)N1CCC(Cc2cccc(Oc3ccc(C(F)(F)F)cn3)c2)CC1 [PF-3845] (1000 nM) | 99 | 106 | 95 | 100 | – | – | – | – | – | – | –
16 | O=P1(N(CCCl)CCCl)NCCCO1 (stereo not given) [Cyclophosphamide] (4000 nM) | 99 | 104 | 92.1 | 111 | – | – | – | – | – | – | –
17 | CN(C)CCOc1ccc(/C(=C(/CCCl)c2ccccc2)c2ccccc2)cc1 [Toremifene] (10000 nM) | – | – | – | – | 105 | 83.6 | 94.5 | 104 | 26.5 | 108 | –
18 | CC(C)C[C@@H](C(=O)N[C@H](C(=O)OC1CCCC1)c1ccccc1)[C@H](O)C(=O)NO [Tosedostat] (10000 nM) | – | – | – | – | 33.6 | 49.5 | 35.2 | 23.2 | 18.8 | 76.5 | –
19 | CN(C)c1nc(N(C)C)nc(N(C)C)n1 [Altretamine] (1000 nM) | 99.4 | 103 | 102 | 115 | – | – | – | – | – | – | –
20 | Cc1ccc(NC(=O)c2ccc(CN3CCN(C)CC3)cc2)cc1Nc1nc(-c2cccnc2)cs1 [Masitinib] (1000 nM) | 101 | 99 | 111 | 89.7 | – | – | – | – | – | – | –
21 | Cc1[nH]c2ccccc2c1CCNCc1ccc(/C=C/C(=O)NO)cc1 [Panobinostat] (1000 nM) | – | – | – | – | 1.29 | 4.25 | 4.66 | 0.37 | 1.09 | 15 | –
22 | COCC1(CO)C(=O)C2CCN1CC2 (stereo not given) [Prima-1 Met] | – | – | – | – | – | – | – | – | – | – | EC50, CellTiter-Blue viability [20]: 0.476 µM; EC50, CellTiter-Blue viability [16]: 4.53 µM; EC50, CellTiter-Blue viability [18]: > 10 µM
23 | O=C(Nc1cccnc1)N1CCC(Cc2cccc(Oc3ccc(C(F)(F)F)cn3)c2)CC1 [PF-3845] | – | – | – | – | – | – | – | – | – | – | EC50, CellTiter-Blue viability [12]: > 10 µM; EC50, CellTiter-Blue viability [15]: 1.55 µM; EC50, CellTiter-Blue viability [16]: 8.6 µM; EC50, CellTiter-Blue viability [18]: 2.57 µM
24 | O=C(/C=C/c1cccc(S(=O)(=O)Nc2ccccc2)c1)NO [Belinostat] (10000 nM) | – | – | – | – | 3.47 | 7.19 | 4.25 | 0.35 | 1.48 | 23 | –

Reference: the supplement of paper PMC4862054
